Source: the NIST ThermoML archive (doi:10.1016/j.jct.2016.02.009)
Numbers after ± are expanded uncertainties.

Columns and labels:
[1] = for molar entropy: 101.33 kPa, Small (less than 1 g) adiabatic calorimetry; for vapor or sublimation pressure: Calculated from knudsen effusion weight loss; for Triple point temperature: Adiabatic calorimetry
[2] = Molar enthalpy of transition or fusion; conditions: Crystal 1; Adiabatic calorimetry

CCCCCCCCCCCCCCn1cc[n+](C)c1.O=S(=O)([N-]S(=O)(=O)C(F)(F)F)C(F)(F)F
[1]
Conditions | molar entropy [J/K/mol] | vapor or sublimation pressure [kPa]
5 K, Crystal 2 | 1.17 ± 0.06 | –
10 K, Crystal 2 | 7.53 ± 0.25 | –
15 K, Crystal 2 | 18.57 ± 0.5 | –
20 K, Crystal 2 | 32.77 ± 0.7 | –
25 K, Crystal 2 | 48.94 ± 0.84 | –
30 K, Crystal 2 | 66.22 ± 0.87 | –
35 K, Crystal 2 | 84.11 ± 1 | –
40 K, Crystal 2 | 102.3 ± 1.1 | –
45 K, Crystal 2 | 120.5 ± 1.3 | –
50 K, Crystal 2 | 138.7 ± 1.5 | –
60 K, Crystal 2 | 174.7 ± 1.7 | –
70 K, Crystal 2 | 209.8 ± 2.1 | –
80 K, Crystal 2 | 244 ± 2.3 | –
90 K, Crystal 2 | 277.1 ± 2.4 | –
100 K, Crystal 2 | 309.3 ± 2.7 | –
110 K, Crystal 2 | 340.5 ± 2.9 | –
120 K, Crystal 2 | 370.8 ± 3.1 | –
130 K, Crystal 2 | 400.3 ± 3.3 | –
140 K, Crystal 2 | 429.1 ± 3.5 | –
150 K, Crystal 2 | 457.2 ± 3.8 | –
160 K, Crystal 2 | 484.6 ± 4 | –
170 K, Crystal 2 | 511.6 ± 4.2 | –
180 K, Crystal 2 | 538.1 ± 4.4 | –
190 K, Crystal 2 | 564.2 ± 4.6 | –
200 K, Crystal 2 | 589.9 ± 4.8 | –
210 K, Crystal 2 | 615.5 ± 4.9 | –
220 K, Crystal 2 | 640.8 ± 5.1 | –
230 K, Crystal 2 | 666 ± 5.3 | –
240 K, Crystal 2 | 691.3 ± 5.5 | –
250 K, Crystal 2 | 716.7 ± 5.7 | –
260 K, Crystal 2 | 742.5 ± 5.9 | –
270 K, Crystal 2 | 769.1 ± 6 | –
280 K, Crystal 2 | 797.3 ± 6.2 | –
290 K, Crystal 2 | 829.7 ± 6.4 | –
295.5 K, Crystal 1 | 850.6 ± 6.6 | –
295.5 K, Crystal 2 | 850.6 ± 6.6 | –
298.15 K, Crystal 1 | 860.5 ± 6.8 | –
300 K, Crystal 1 | 866 ± 6.8 | –
308.77 K, Crystal 1 | 891.2 ± 7 | –
308.77 K, Liquid | 1037 ± 8 | –
310 K, Liquid | 1041 ± 8 | –
320 K, Liquid | 1070 ± 9 | –
330 K, Liquid | 1098 ± 9 | –
340 K, Liquid | 1125 ± 9 | –
350 K, Liquid | 1152 ± 9 | –
360 K, Liquid | 1179 ± 9 | –
370 K, Liquid | 1205 ± 9 | –
498.07 K, Liquid | – | 2.76e-05 ± 1.7e-06
503.06 K, Liquid | – | 3.85e-05 ± 2.4e-06
508.05 K, Liquid | – | 5.39e-05 ± 3.3e-06
513.05 K, Liquid | – | 7.45e-05 ± 4.6e-06
518.04 K, Liquid | – | 0.0001018 ± 6.2e-06
523.05 K, Liquid | – | 0.0001397 ± 8.6e-06
528.05 K, Liquid | – | 0.0001898 ± 1.2e-05

[1]
Conditions | Triple point temperature [K]
Crystal 1 | 308.77 ± 0.05
Crystal 2 | 295.5 ± 0.4

Conditions | Molar enthalpy of transition or fusion [kcal/mol]
[2] | 10.8 ± 0.0239

CCCCCCCCCCCCCCCCn1cc[n+](C)c1.O=S(=O)([N-]S(=O)(=O)C(F)(F)F)C(F)(F)F
[1]
Conditions | molar entropy [J/K/mol] | vapor or sublimation pressure [kPa]
5 K, Crystal 2 | 1.23 ± 0.06 | –
10 K, Crystal 2 | 7.81 ± 0.26 | –
15 K, Crystal 2 | 19.15 ± 0.51 | –
20 K, Crystal 2 | 33.76 ± 0.72 | –
25 K, Crystal 2 | 50.4 ± 0.87 | –
30 K, Crystal 2 | 68.27 ± 0.9 | –
35 K, Crystal 2 | 86.83 ± 1 | –
40 K, Crystal 2 | 105.7 ± 1.2 | –
45 K, Crystal 2 | 124.7 ± 1.3 | –
50 K, Crystal 2 | 143.7 ± 1.5 | –
60 K, Crystal 2 | 181.5 ± 1.8 | –
70 K, Crystal 2 | 218.5 ± 2.1 | –
80 K, Crystal 2 | 254.6 ± 2.4 | –
90 K, Crystal 2 | 289.6 ± 2.5 | –
100 K, Crystal 2 | 323.6 ± 2.8 | –
110 K, Crystal 2 | 356.7 ± 3.1 | –
120 K, Crystal 2 | 388.9 ± 3.3 | –
130 K, Crystal 2 | 420.2 ± 3.5 | –
140 K, Crystal 2 | 450.7 ± 3.7 | –
150 K, Crystal 2 | 480.4 ± 4 | –
160 K, Crystal 2 | 509.6 ± 4.2 | –
170 K, Crystal 2 | 538.1 ± 4.4 | –
180 K, Crystal 2 | 566.1 ± 4.6 | –
190 K, Crystal 2 | 593.7 ± 4.8 | –
200 K, Crystal 2 | 621 ± 5 | –
210 K, Crystal 2 | 647.9 ± 5.1 | –
220 K, Crystal 2 | 674.5 ± 5.3 | –
230 K, Crystal 2 | 701.1 ± 5.5 | –
240 K, Crystal 2 | 727.5 ± 5.7 | –
250 K, Crystal 2 | 754.1 ± 6 | –
260 K, Crystal 2 | 780.8 ± 6.2 | –
270 K, Crystal 2 | 808.1 ± 6.4 | –
280 K, Crystal 2 | 836.2 ± 6.6 | –
290 K, Crystal 2 | 866.1 ± 6.8 | –
298.15 K, Crystal 2 | 893.4 ± 7 | –
300 K, Crystal 2 | 900.3 ± 7 | –
305.5 K, Crystal 1 | 922.5 ± 7.2 | –
305.5 K, Crystal 2 | 922.5 ± 7.2 | –
310 K, Crystal 1 | 941 ± 7.3 | –
319.25 K, Crystal 1 | 971.3 ± 7.5 | –
319.25 K, Liquid | 1132 ± 9 | –
320 K, Liquid | 1134 ± 9 | –
330 K, Liquid | 1164 ± 9 | –
340 K, Liquid | 1194 ± 9 | –
350 K, Liquid | 1222 ± 9 | –
360 K, Liquid | 1251 ± 9 | –
370 K, Liquid | 1279 ± 9 | –
508.07 K, Liquid | – | 3.21e-05 ± 2e-06
513.07 K, Liquid | – | 4.5e-05 ± 2.8e-06
518.07 K, Liquid | – | 6.31e-05 ± 3.9e-06
523.07 K, Liquid | – | 8.75e-05 ± 5.4e-06
528.06 K, Liquid | – | 0.0001197 ± 7.3e-06
533.07 K, Liquid | – | 0.0001644 ± 1e-05

[1]
Conditions | Triple point temperature [K]
Crystal 1 | 319.25 ± 0.05
Crystal 2 | 305.5 ± 0.5

Conditions | Molar enthalpy of transition or fusion [kcal/mol]
[2] | 12.26 ± 0.0574

CCCCCCCCCCn1cc[n+](C)c1.O=S(=O)([N-]S(=O)(=O)C(F)(F)F)C(F)(F)F
[1]
Conditions | molar entropy [J/K/mol]
5 K, Crystal 2 | 1.18 ± 0.06
10 K, Crystal 2 | 7.33 ± 0.25
15 K, Crystal 2 | 17.93 ± 0.49
20 K, Crystal 2 | 31.5 ± 0.68
25 K, Crystal 2 | 46.8 ± 0.81
30 K, Crystal 2 | 63.01 ± 0.83
35 K, Crystal 2 | 79.61 ± 0.97
40 K, Crystal 2 | 96.26 ± 1.1
50 K, Crystal 2 | 129.2 ± 1.3
60 K, Crystal 2 | 161.4 ± 1.7
70 K, Crystal 2 | 192.7 ± 1.9
80 K, Crystal 2 | 222.8 ± 2.1
90 K, Crystal 2 | 252 ± 2.2
100 K, Crystal 2 | 280.3 ± 2.4
110 K, Crystal 2 | 307.8 ± 2.7
120 K, Crystal 2 | 334.4 ± 2.9
130 K, Crystal 2 | 360.4 ± 3.1
140 K, Crystal 2 | 385.8 ± 3.3
150 K, Crystal 2 | 410.5 ± 3.5
160 K, Crystal 2 | 434.8 ± 3.6
170 K, Crystal 2 | 458.6 ± 3.8
180 K, Crystal 2 | 482.1 ± 4
190 K, Crystal 2 | 505.4 ± 4.1
200 K, Crystal 2 | 528.6 ± 4.2
210 K, Crystal 2 | 551.8 ± 4.4
220 K, Crystal 2 | 575.2 ± 4.6
230 K, Crystal 2 | 599.3 ± 4.8
240 K, Crystal 2 | 625.2 ± 5
249 K, Crystal 1 | 653.6 ± 5.2
249 K, Crystal 2 | 653.6 ± 5.2
252 K, Crystal 1 | 662.4 ± 5.3
260 K, Crystal 1 | 682.3 ± 5.5
270 K, Crystal 1 | 707.5 ± 5.7
277.33 K, Crystal 1 | 726.3 ± 5.7
277.33 K, Liquid | 829.8 ± 6.4
280 K, Liquid | 836.9 ± 6.6
290 K, Liquid | 863.1 ± 6.8
298.15 K, Liquid | 883.9 ± 6.9
300 K, Liquid | 888.6 ± 7
310 K, Liquid | 913.5 ± 7.1
320 K, Liquid | 937.9 ± 7.3
330 K, Liquid | 961.7 ± 7.5
340 K, Liquid | 985.1 ± 7.7
350 K, Liquid | 1008 ± 8
360 K, Liquid | 1031 ± 8
370 K, Liquid | 1053 ± 8

[1]
Conditions | Triple point temperature [K]
Crystal 1 | 277.33 ± 0.05
Crystal 2 | 249 ± 1

Conditions | Molar enthalpy of transition or fusion [kcal/mol]
[2] | 6.852 ± 0.0311
